Experimental data: patent publication US6872852B2, “Polyamine analogues as cytotoxic agents” (MediQuest Therapeutics, Inc., priority 2000, dated 2005)

Tests used:
[1] = system: MDA-MB-231 cells; test: Cytotoxicity, MTS assay after 3 days; assay type: cell-based, human; conditions: for IC50: 3 days incubation, MTS, determined by the inventors, read-out: IC50 against MDA cells
Protocol: After a total of 3-days, cell growth was evaluated by MTS assay (Promega).

[2] = system: putrescine uptake into MDA cells; conditions: read-out: Km for uptake into MDA cells; previously shown; cited from earlier work
[3] = system: [1,4-14C]-putrescine uptake; conditions: Frydman et al.; cited from earlier work
[4] = system: cellular polyamine levels; test: Intracellular polyamine levels by HPLC; assay type: cell-based; conditions: 11 hr treatment
Protocol: To determine the effects of treatment with polyamine analogues on cellular polyamine levels, intracellular polyamine levels were measured by high performance liquid chromatography (HPLC) after 11 hr treatment with ORI 1313 (32 μM) or ORI 1327 (3 μM). […] This observation is consistent with the previous observations in the field.

[5] = system: MDA cells; test: NCI 60-cell line screen; assay type: cell-based, human; conditions: determined by NCI
Protocol: (§1) ORI 1313 and ORI 1327 were evaluated by the National Cancer Institute (NCI) with a 60-cell line screen.

[6] = system: PC-3 cells; test: NCI 60-cell line screen; assay type: cell-based, human; conditions: determined by NCI
Protocol: as §1

[7] = system: MDA-MB-231 cells; test: Cell cycle analysis by FACS (propidium iodide), apoptotic fraction; assay type: cell-based, human
Protocol: Cell cycle analysis was performed using fluorescent activated cell sorter (FACS) analysis on polyamine analogue treated MDA cells (see FIGS. 7A-7C). Briefly, MDA-MB-231 cells were grown in the presence of ORI 1313 or ORI 1327 for various times then fixed with ethanol and stained with propidium iodide. Cells were analyzed by FACS, with the areas on the histograms designating DNA content and cell cycle stage: M1, G1; M2, S; M3, G2/M; M4, <2N (apoptotic cells).

[8] = system: MES-SA/Dx5 uterine sarcoma cell line; test: Growth inhibition of multi-drug resistant cells, MTS assay; assay type: cell-based, human; conditions: inferred from parent vs MDR-1 expressing line
Protocol: An unexpected observation made during the cellular characterization of ORI 1313 and ORI 1327 was their growth inhibitory activity against the multi-drug resistant (MDR) uterine sarcoma cell line, MES-SA/Dx5 (see FIGS. 8A and 8B). Briefly, cells were plated at 1000 cells/well in a 96-well plate and allowed to adhere for 1 day. The indicated analogue was added and the cells were incubated for 3 days when cell growth was evaluated by MTS assay (Promega). Vertical axis represents cell number as a % of no drug treatment controls
The MES-SA/Dx5 cell line was developed by selection on doxorubicin and over-expresses the mRNA of the multi-drug resistance gene (MDR-1). The cells are thus much less sensitive to drugs exported via P-glycoprotein (P-gp). See Harker, W. G. et al. Multi-drug (pleiotropic) resistance in doxorubicin-selected variants of the human sarcoma cell line MES-SA. Cancer Research, 1985, 45, 4091-4096. […] This will be particularly advantageous in situations involving target cells expressing MDR-1.

[9] = system: putrescine uptake into PC-3 cells; test: Inhibition of 3H-putrescine uptake; assay type: cell-based, human; conditions: read-out: Kiapp versus putrescine uptake into PC-3 cells
[10] = system: PC-3 cells; test: Cytotoxicity / cell growth, MTS assay; assay type: cell-based, human; conditions: for IC50: determined by the present inventors; for inhibition of growth of PC-3 cells: 3 days
Protocol: Involvement of the pro-apoptotic caspase-3 enzyme in the action of OR 1313 is shown by the experiment represented in FIG. 10. Briefly, PC-3 cells were plated at 1000 cells/well in a 96-well plate and allowed to adhere for 1 day. 10 μM of ORI 1313 and 0, 5, or 15 μM Z-DEVD-fmk, a caspase inhibitor, were added and the cells were incubated for 3 days. Cell growth was evaluated by MTS assay (Promega). Vertical axis represents cell number as a % of no drug treatment controls.

[11] = system: SK-MEL-5 cells; test: Cytotoxicity, MTS assay after 3 days; assay type: cell-based; conditions: 3 days incubation, read-out: IC50 against SK-MEL-5 cells
Protocol: Briefly, cells were plated at 1500 (SK-MEL-5) or 5000 (MDA) cells/well in a 96-well plate and allowed to adhere for 1 day. The indicated analogues were added and the cells were incubated for 3 days, when cell growth was evaluated by MTS assay (Promega). Vertical axis represents cell number as a % of no drug treatment controls. Additionally, significant activity was seen against PC-3 cells (see FIGS. 4 and 11).

[12] = system: BALB/c mice; conditions: mouse, in vivo, ip
Protocol: (§2) Chronic toxicities were evaluated by giving i.p. injections once daily for 5 consecutive days.

[13] = system: cell growth; test: Co-treatment experiments on analogue cytotoxicity; assay type: cell-based; conditions: for effect of co-treatment with DFMO on results: 1 mM DFMO; for effect of co-treatment with putrescine on cytotoxic effects: 50-fold excess concentration of putrescine; for effect of co-treatment with ORI 1202 on inhibition of cell growth: polyamine transport inhibitor ORI 1202
[14] = system: BALB/c mice; conditions: mouse, in vivo, ip; remark: listed apart in the source
Protocol: as §2

[15] = system: BALB/c mice; test: Acute toxicity, single i.p. injection
Protocol: as §2

[16] = system: BALB/c mice; test: Chronic toxicity, i.p. once daily for 5 consecutive days
Protocol: as §2

[17] = system: A375 human melanoma cell line; test: Cytotoxicity against A375 cell line; assay type: cell-based
[18] = system: melanoma cell lines; test: NCI 60-cell line screen; assay type: cell-based; conditions: 8 melanoma lines
Protocol: as §1

[19] = system: putrescine uptake into MDA cells; test: Inhibition of 3H-putrescine uptake; assay type: cell-based, human; conditions: read-out: Kiapp versus putrescine uptake into MDA cells
[20] = system: A375 human melanoma xenografts; test: A375 human melanoma xenograft in nude mice; assay type: in vivo
Protocol: ORI was tested in a melanoma tumor xenograft tumor models in BALB/c nude mice. […] The xenograft efficacy study would be performed with two drug concentrations. There were four groups of 10 mice. Treatment groups received the maximum tolerated dose (MTD) or ½ MTD of each analogue. […] A positive control group treated with dacarbazine DTIC (dosage of 180 mg/kg i.p. once per day for 5 days) was used to validate this tumor model system.
Female BALB/c nu/nu athymic mice weighing 20 grams were the animal host for the human xenografts. The method of administration was i.p. injections with 9 mM or 4 mM ORI 1313 once daily for the duration of the study (end point when control tumors reached 2000 mg). […] DITC was administered by i.p. injection once daily for 5 days. Treatment started when the tumors reach 5 mm×5 mm size (50 mg). The mouse weight and tumor size were measured twice weekly. The tumor measurements by calipers were then converted to mg tumor volume by the formula L^2×W/2. Once the control tumors reached 2000 mg both the control and treatment group mice were weighed, sacrificed and the tumors removed. The actual weights of tumors were then used to calculate the percent growth inhibition by each analogue using the formula: % growth inhibition=(mean treated tumor weight/mean control tumor weight×100)−100.

SMILES	IC50 [1] [µM]	IC50 [5] [µM]	IC50 [6] [µM]	substrate for the P-gp multi-drug exporter [8]	Ki [9] [µM]	IC50 [10] [µM]	IC50 [11] [µM]	increase over N1,N4-dibenzylputrescine in potency of cytotoxic activity against MDA cells [1] [fold]	approximate maximum tolerated dosage [12] [mg/kg]	tolerated dose, chronic [12] [mg/kg]	effect of co-treatment with DFMO on results [13]	effect of co-treatment with putrescine on cytotoxic effects [13]	effect of co-treatment with ORI 1202 on inhibition of cell growth [13]	tolerated dose, acute [14] [mg/kg]	dose that caused death, acute [15] [mg/kg]	lethal dosage, chronic [16] [mg/kg]	also measured
c1ccc(CNCCCNCc2ccccc2)cc1 [N^1, N^3-dibenzyl analog of 1,3-diaminopropane, reference compound]	28.8																
NCCCCN [Putrescine, 1,4-diaminobutane]																	Km [2]: 12.4 µM; Kmapp, putrescine uptake [3]: 5.2 ± 0.6 µM
c1ccc(N(c2ccccc2)c2ccc(CNCCCCNCc3ccc(N(c4ccccc4)c4ccccc4)cc3)cc2)cc1 [ORI 1327]	0.65	0.005	0.81	not substrates	14.3	0.65	0.71	295	~7.5	7.5	did not alter	did not block	did not alter	37	75	30	effect on cellular polyamine levels ([4]; 3 μM): no significant effects; <2N DNA content (apoptotic fraction) ([7]; 3 μM, 11 hr treatment): 15%; solubility relative to lactate salt (dihydrochloride salt): less soluble; solution concentration produced (hydroxypropyl-β-cyclodextrin, 45% w/v HβC in H2O): 40 mM; maximum solubility (lactate salt, aqueous): 5000 µM
c1ccc2c(CNCCCCNCc3cccc4ccccc34)cccc2c1 [ORI 1313]	12	2.3	11.2	not substrates	24.1	20	4.1	16	~40	40	did not alter	did not block	did not alter	93	186	80	effect on cellular polyamine levels ([4]; 32 μM): no significant effects; <2N DNA content (apoptotic fraction) ([7]; 32 μM, 11 hr treatment): 21%; <2N DNA content (apoptotic fraction) ([7]; 32 μM, 24 hr treatment): 49%; <2N DNA content (apoptotic fraction) ([7]; 32 μM, 48 hr treatment): 30%; inhibition of growth of PC-3 cells ([10]; 10 μM ORI 1313 + 5 μM Z-DEVD-fmk): 19%; inhibition of growth of PC-3 cells ([10]; 10 μM ORI 1313 + 15 μM Z-DEVD-fmk): 10%; inhibition of growth of PC-3 cells ([10]; 10 μM ORI 1313 alone): 46%; IC50 [17]: 4.1 µM; effectiveness against melanoma cell lines tested [18]: 6 of 8; Ki [19]: 28.3 µM; solubility (dihydrochloride salt, in 5% DMSO): at least 40 mM; adverse findings in xenograft study ([20]; after 7 weeks of treatment): transient skin ulceration and weight loss; tumor growth inhibition ([20]; at 25 days, vs 5% dextrose control, i.p. once daily): 36%; tolerability in xenograft study ([20]; i.p. once daily, nude mice): well tolerated up to 7 weeks; tumor growth delay ([20]; vs 5% dextrose control, i.p. once daily): 6.2 days
